Values quoted from earlier work, collected in patent US8841334B2, “Compounds as cannabinoid receptor ligands and uses thereof” (priority 2006, dated 2014).

How the values were obtained:
rodent models = rodent models of neuropathic, incisional, and both chronic and acute inflammatory pain
rat = rat formalin model of persistent pain
[1] = system: apolipoprotein E knockout mice
animal models = animal models of acute thermal pain, persistent pain, inflammatory pain and neuropathic pain
[2] = system: microglial activation and neurotoxicity; conditions: in vitro
mice = conditions: model for post-menopausal osteoporosis

In the case of `COc1ccc2c(c1)c(CCN1CCOCC1)c(C)n2C(=O)c1cccc(Cl)c1Cl` [GW405833], the “efficacy in pain models” value (rodent models) is given as “efficacious”.

For `CCCCCCC(C)(C)c1cc(OC)c([C@@H]2C=C(CO)[C@@H]3C[C@H]2C3(C)C)c(OC)c1` [HU-308], the antinociceptive response (rat) is given as “elicits an antinociceptive response”.

For (−)-Δ^9-Tetrahydrocannabinol [THC], the “progression of atherosclerotic lesions” value ([1]; low doses) is given as “slowed the progression of atherosclerotic lesions”.

In the case of `CN1CCCCC1Cn1cc(C(=O)c2cc([N+](=O)[O-])ccc2I)c2ccccc21` (stereo not drawn) [AM-1241], the analgesic efficacy (animal models) is listed as “robust analgesic efficacy”.

For `CCCC(C)(C)c1ccc2c(c1)OC(C)(C)[C@@H]1CC=C(C)C[C@@H]21` [JWH-133], the “[…]-amyloid-induced microglial activation and neurotoxicity” value [2] is listed as “abrogated”.

In the case of SR144528, the ovariectomy-induced bone loss (mice) is listed as “reverse ovariectomy-induced bone loss”, the “inhibition of the effects of THC on atherosclerotic lesions” value ([1]; mouse, in vivo) is listed as “inhibited” and the “block of the effects of JWH-133 on microglial activation and neurotoxicity” value [2] is listed as “blocked”. The osteoclast activity (osteoclast activity) was “inhibit osteoclast activity”.
